Experimental data: patent US11964951B2, “Process of making derivatives of substituted morpholines” (Supernus Pharmaceuticals, Inc., priority 2022, dated 2024)

Key:
[1] = relative to the (R)-(+)-isomer; J. Med. Chem. 1976, 19(8), 1074; cited from earlier work
[2] = chemical stability on standing / by HPLC during work-up; assay type: physicochemical; conditions: kept at room temperature overnight
Procedure: The process was repeated. The mother liquor materials were combined. A 15-g portion of the mother liquor material (a syrupy liquid) was subjected to a water-acid-base extraction by dissolving the mother liquor in 50 mL of ethyl acetate and washing with water then with 1N HCl (2×). The ethyl acetate layer contained 2-((2-ethoxyphenoxy)methyl)morpholine, unreacted BOC compound 5, and a trace of the desired compound. The HCl solution was mainly the desired amine 6 HCl salt plus some 2-((2-ethoxyphenoxy)methyl)morpholine and a minor impurity. This solution was made alkaline with sodium bicarbonate, extracted with dichloromethane (3×) washed with brine, and dried over magnesium sulfate. […] The material was kept at room temperature overnight whereupon it decomposed.
The ethyl acetate solution of the free base was treated with a solution of 150 mg of maleic acid in 2 mL of isopropanol. […] The material was dissolved in dichloromethane, washed with water, and evaporated to give 374 mg of the maleate as an oil.

CCOc1ccccc1OC[C@@H]1CNCCO1 [(S)-enantiomer, (S)-2-((2-ethoxyphenoxy)methyl)morpholine]
pharmacological activity as compared to the (R)-(+)-isomer [1]: five times

CCOc1ccccc1OC[C@@H]1CN(C(=O)OC(C)OC(=O)[C@@H](N)C(C)C)CCO1.Cl (mixture of isomers) [Compound 6, 1-[(S)-2-Amino-3-methylbutyroxy]ethyl (S)-2-[(o-ethoxyphenoxy)methyl]-4-morpholinecarboxylate, hydrochloride]
stability of the isolated material [2]: decomposed
